Square brackets hold non-standard residues; d marks the D form. Peptide text beside a SMILES is read from it. hArg = N=C(N)NCCCC[C@H](N)C(=O)O; Nle = CCCC[C@H](N)C(=O)O; Orn = NCCC[C@H](N)C(=O)O; Nva = CCC[C@H](N)C(=O)O

This assay relates to secretion of ACTH stimulated by oCRF in cultured rat pituitary cells. The assay is described as follows: Blocking of oCRF-stimulated ACTH and β-endorphin secretion by cultured rat pituitary cells. It is filed as cell-based. The settings on record: result in words. How it is done:
The effectiveness of synthetic CRF antagonists to block the secretion of ACTH and β-endorphin by cultured rat pituitary cells is measured using the procedure as generally set forth in Vale et al., Endocrinology, 91, 562 (1972).
In the case of `CCCC[C@H](NC(=O)[C@H](Cc1ccc(O)cc1)NC(=O)[C@H](CCCCN)NC(=O)[C@H](CCCNC(=N)N)NC(=O)[C@H](CC(N)=O)NC(=O)[C@H](CC(C)C)NC(=O)CNC(=O)[C@H](C)NC(=O)[C@H](CCC(N)=O)NC(=O)[C@H](CCC(=O)O)NC(=O)[C@H](CCCNC(=N)N)NC(=O)[C@H](CCC(N)=O)NC(=O)[C@H](CC(N)=O)NC(=O)[C@H](CCC(=O)O)NC(=O)[C@H](CC(N)=O)NC(=O)[C@H](CCCNC(=N)N)NC(=O)[C@H](C)NC(=O)[C@H](CCSC)NC(=O)[C@H](CCC(=O)O)NC(=O)[C@@H](NC(=O)[C@H](CCSC)NC(=O)[C@H](CC(N)=O)NC(=O)[C@H](CCCNC(=N)N)NC(=O)[C@H](CC(C)C)NC(=O)[C@H](CC(C)C)NC(=O)[C@H](Cc1c[nH]cn1)NC(=O)[C@@H](N)Cc1ccccc1)[C@@H](C)CC)C(=O)N[C@@H](CC(=O)O)C(=O)N[C@@H](CCC(=O)O)C(=O)N[C@H](C(N)=O)C(C)C` [VI, [Nle^38]-Carp Urotensin I(12-41)] (H-FHLLRNMIEMARNENQREQAGLNRKY[Nle]DEV-NH2), the “inhibition of the secretion of ACTH and β-END-LI” value (“inhibition” below) was “inhibits the secretion of ACTH and β-END-LI”.

For `CCCC[C@H](NC(=O)[C@H](CCC(=O)O)NC(=O)[C@@H](NC(=O)[C@H](CCCC)NC(=O)[C@H](CC(N)=O)NC(=O)[C@H](CCCNC(=N)N)NC(=O)[C@H](CC(C)C)NC(=O)[C@H](CC(C)C)NC(=O)[C@H](Cc1c[nH]cn1)NC(=O)[C@@H](N)Cc1ccccc1)[C@@H](C)CC)C(=O)N[C@@H](C)C(=O)N[C@@H](CCCNC(=N)N)C(=O)N[C@@H](CC(N)=O)C(=O)N[C@@H](CCC(=O)O)C(=O)N[C@@H](CC(N)=O)C(=O)N[C@@H](CCC(N)=O)C(=O)N[C@@H](CCCNC(=N)N)C(=O)N[C@@H](CCC(=O)O)C(=O)N[C@@H](CCC(N)=O)C(=O)N[C@@H](C)C(=O)NCC(=O)N[C@@H](CC(C)C)C(=O)N[C@@H](CC(N)=O)C(=O)N[C@@H](CCCNC(=N)N)C(=O)N[C@@H](CCCCN)C(=O)N[C@@H](Cc1ccc(O)cc1)C(=O)N[C@@H](CCCC)C(=O)N[C@@H](CC(=O)O)C(=O)N[C@@H](CCC(=O)O)C(=O)N[C@H](C(N)=O)C(C)C` [VIII, [Nle^18,21,38]-Carp Urotensin I(12-41)] (H-FHLLRN[Nle]IE[Nle]ARNENQREQAGLNRKY[Nle]DEV-NH2), the “inhibition” value is “inhibits the secretion of ACTH and β-END-LI”.

Regarding `CCCC[C@H](NC(=O)[C@H](CC(C)C)NC(=O)[C@H](CCCCN)NC(=O)[C@H](CCCNC(=N)N)NC(=O)[C@H](CC(N)=O)NC(=O)[C@H](CO)NC(=O)[C@H](Cc1c[nH]cn1)NC(=O)[C@H](C)NC(=O)[C@H](CCC(N)=O)NC(=O)[C@H](CCC(N)=O)NC(=O)[C@H](C)NC(=O)[C@H](CC(C)C)NC(=O)[C@H](CCC(N)=O)NC(=O)[C@H](CCC(=O)O)NC(=O)[C@H](C)NC(=O)[C@H](CCCNC(=N)N)NC(=O)[C@H](C)NC(=O)[C@H](CCSC)NC(=O)[C@H](CCC(=O)O)NC(=O)CNC(=O)[C@@H](NC(=O)[C@H](CCC(=O)O)NC(=O)[C@H](CCCNC(=N)N)NC(=O)[C@H](CC(C)C)NC(=O)[C@H](CC(C)C)NC(=O)[C@H](Cc1c[nH]cn1)NC(=O)[C@H](Cc1ccccc1)NC(=O)[C@@H](NC(=O)[C@H](CC(C)C)NC(=O)[C@H](CC(=O)O)NC(C)=O)[C@@H](C)O)C(C)C)C(=O)N[C@@H](CC(=O)O)C(=O)N[C@@H](CCC)C(=O)N[C@H](C(N)=O)[C@@H](C)CC` [XIII, [Acetyl-Asp^9, Gly^19, Nle^38, Asp^39, Nva^40]-hCRF(9-41)] (Ac-DLTFHLLREVGEMARAEQLAQQAHSNRKL[Nle]D[Nva]I-NH2), the “inhibition” value is “inhibits the secretion of ACTH and β-END-LI”. On to `CCCC[C@H](NC(=O)[C@H](CCC(=O)O)NC(=O)[C@H](CC(C)C)NC(=O)[C@@H](NC(=O)[C@H](CCC(=O)O)NC(=O)[C@H](CCCNC(=N)N)NC(=O)[C@H](CC(C)C)NC(=O)[C@H](CC(C)C)NC(=O)[C@H](Cc1c[nH]cn1)NC(=O)[C@H](Cc1ccccc1)NC(=O)[C@@H](NC(=O)[C@@H](N)CC(C)C)[C@@H](C)O)C(C)C)C(=O)N[C@@H](C)C(=O)N[C@@H](CCCNC(=N)N)C(=O)NCC(=O)N[C@@H](CCC(=O)O)C(=O)N[C@@H](CCC(N)=O)C(=O)N[C@@H](CC(C)C)C(=O)N[C@@H](C)C(=O)N[C@@H](CCC(N)=O)C(=O)N[C@@H](CCC(N)=O)C(=O)N[C@@H](C)C(=O)N[C@@H](Cc1ccc(O)cc1)C(=O)N[C@@H](CO)C(=O)N[C@@H](CC(N)=O)C(=O)N[C@@H](CCCNC(=N)N)C(=O)N[C@@H](CCCN)C(=O)N[C@@H](CC(C)C)C(=O)N[C@@H](CCCC)C(=O)N[C@@H](CCC(=O)O)C(=O)N[C@H](C(=O)N[C@H](C(N)=O)[C@@H](C)CC)[C@@H](C)CC` [XV, [Nle^21,38, Gly^24, Tyr^32, Orn^36]-hCRF (10-41)] (H-LTFHLLREVLE[Nle]ARGEQLAQQAYSNR[Orn]L[Nle]EII-NH2), for which the “inhibition” value was “inhibits the secretion of ACTH and β-END-LI”. Regarding `CCCC[C@H](NC(=O)[C@H](CC(C)C)NC(=O)[C@H](CC(C)C)NC(=O)[C@H](CCCNC(=N)N)NC(=O)[C@H](CC(N)=O)NC(=O)[C@H](CC(N)=O)NC(=O)[C@H](C)NC(=O)[C@H](C)NC(=O)[C@H](CCC(N)=O)NC(=O)[C@H](CCC(N)=O)NC(=O)[C@H](CCCCN)NC(=O)[C@H](CCC(=O)O)NC(=O)[C@H](CCCCN)NC(=O)[C@H](CCC(=O)O)NC(=O)[C@H](CCC(N)=O)NC(=O)[C@H](CCCCN)NC(=O)[C@H](C)NC(=O)[C@@H](NC(=O)[C@H](CCC(=O)O)NC(=O)[C@@H](NC(=O)[C@H](CCSC)NC(=O)[C@H](CCCCN)NC(=O)[C@H](CCCNC(=N)N)NC(=O)[C@H](CC(C)C)NC(=O)[C@H](CC(C)C)NC(=O)[C@H](CCC(=O)O)NC(=O)[C@H](CC(C)C)NC(=O)[C@@H](N)CO)[C@@H](C)CC)[C@@H](C)CC)C(=O)N[C@@H](CC(=O)O)C(=O)N[C@H](C(=O)N[C@@H](CCC(N)=O)C(N)=O)[C@@H](C)O` [XVI, [Ala^21, Nle^37, Gln^40]-sauvagine (10-40)] (H-SLELLRKMIEIAKQEKEKQQAANNRLL[Nle]DTQ-NH2), the “inhibition” value is “inhibits the secretion of ACTH and β-END-LI”.

As to `CCCC[C@H](NC(=O)[C@H](CC(C)C)NC(=O)[C@H](CC(C)C)NC(=O)[C@H](CCCNC(=N)N)NC(=O)[C@H](CC(N)=O)NC(=O)[C@H](CC(N)=O)NC(=O)[C@H](C)NC(=O)[C@H](C)NC(=O)[C@H](CCC(N)=O)NC(=O)[C@H](CCC(N)=O)NC(=O)[C@H](CCCCN)NC(=O)[C@H](CCC(=O)O)NC(=O)[C@H](CCCCN)NC(=O)[C@H](CCC(=O)O)NC(=O)[C@H](CCC(N)=O)NC(=O)[C@H](CCCCNC(=N)N)NC(=O)[C@H](CCC(=O)O)NC(=O)[C@H](C)NC(=O)[C@H](CCC(=O)O)NC(=O)[C@@H](NC(=O)[C@H](CCSC)NC(=O)[C@H](CCCCN)NC(=O)[C@H](CCCNC(=N)N)NC(=O)[C@H](CC(C)C)NC(=O)[C@H](CC(C)C)NC(=O)[C@H](CCC(=O)O)NC(=O)[C@@H](N)CC(C)C)[C@@H](C)CC)C(=O)N[C@@H](CC(=O)O)C(=O)N[C@@H](Cc1ccccc1)C(=O)N[C@H](C(N)=O)[C@@H](C)CC` [XVII, [Ala^20, Har^22, Nle^37, Phe^39]-sauvagine (11-40)] (H-LELLRKMIEAE[hArg]QEKEKQQAANNRLL[Nle]DFI-NH2), the “inhibition” value was “inhibits the secretion of ACTH and β-END-LI”. For the compound `CCCC[C@H](NC(=O)[C@H](CC(C)C)NC(=O)[C@H](CC(C)C)NC(=O)[C@H](CCCNC(=N)N)NC(=O)[C@H](CC(N)=O)NC(=O)[C@H](CC(N)=O)NC(=O)[C@H](C)NC(=O)[C@H](C)NC(=O)[C@H](CCC(N)=O)NC(=O)[C@H](CCC(N)=O)NC(=O)[C@H](CCCCN)NC(=O)[C@@H](NC(=O)[C@H](CCCCN)NC(=O)[C@H](CCC(=O)O)NC(=O)[C@H](CCC(N)=O)NC(=O)[C@H](CCCCN)NC(=O)[C@H](CCC(=O)O)NC(=O)[C@@H](NC(=O)[C@H](CCC(=O)O)NC(=O)[C@@H](NC(=O)[C@H](CCSC)NC(=O)[C@H](CCCCN)NC(=O)[C@H](CCCNC(=N)N)NC(=O)[C@H](CC(C)C)NC(=O)[C@H](CC(C)C)NC(=O)[C@H](CCC(=O)O)NC(=O)[C@@H](N)CC(C)C)C(C)C)C(C)C)[C@@H](C)CC)C(=O)N[C@@H](CC(=O)O)C(=O)N[C@H](C(=O)NCC(N)=O)[C@@H](C)O` [XVIII, [Val^18,20, Ile^26, Nle^37, Gly^40]-sauvagine(11-40)] (H-LELLRKMVEVEKQEKIKQQAANNRLL[Nle]DTG-NH2), the “inhibition” value was “inhibits the secretion of ACTH and β-END-LI”. With `CCCC[C@H](NC(=O)[C@H](CCC(=O)O)NC(=O)[C@H](CC(C)C)NC(=O)[C@H](CCSC)NC(=O)[C@H](CCC(=O)O)NC(=O)[C@H](CCCNC(=N)N)NC(=O)[C@H](CC(C)C)NC(=O)[C@H](CC(C)C)NC(=O)[C@H](Cc1c[nH]cn1)NC(=O)[C@H](N)Cc1ccccc1)C(=O)N[C@@H](C)C(=O)N[C@@H](CCCCN)C(=O)N[C@@H](C)C(=O)N[C@@H](CCC(=O)O)C(=O)N[C@@H](CCC(N)=O)C(=O)N[C@@H](CCSC)C(=O)N[C@@H](C)C(=O)N[C@@H](CCC(=O)O)C(=O)N[C@@H](CCC(N)=O)C(=O)N[C@@H](C)C(=O)N[C@@H](C)C(=O)N[C@@H](CC(C)C)C(=O)N[C@@H](CC(N)=O)C(=O)N[C@@H](CCCNC(=N)N)C(=O)N[C@@H](CC(C)C)C(=O)N[C@@H](CC(C)C)C(=O)N[C@@H](CCCC)C(=O)N[C@@H](CCC(=O)O)C(=O)N[C@@H](CCC(=O)O)C(=O)N[C@@H](C)C(N)=O` [XXI, [D-Phe^12, Met^27, Nle^21,38]-AHC (12-41)] (H-[dF]HLLREMLE[Nle]AKAEQMAEQAALNRLL[Nle]EEA-NH2), the “inhibition” value was “inhibits the secretion of ACTH and β-END-LI”.

The values above are taken from patent US5109111A, “CRF antagonists” (The Salk Institute for Biological Studies, priority 1990, dated 1992).
